Data reported in patent publication US20240352068A1, “VIMENTIN TARGETED PEPTOIDS FOR EARLY DIAGNOSIS AND TREATMENT OF CANCER” (UNIVERSITY OF HOUSTON SYSTEM, priority 2021, published 2024).
Blank lines part the entries; values can stand above or below the molecule they belong to. Numbered stars: 1 amine (or outer) side, 2 acyl side, 3 side chain; on linkers, the order of the positions; unused ones are H or OH. Bridge positions count the residues as written; N and C are the ends. Square brackets hold non-standard residues; d marks the D form. Peptide text beside a SMILES is read from it. I, II: the chains in the order shown. X1 = O=C(c1ccccc1)c1cccc(N(CC(=O)[*:2])[*:1])c1; N(4-BzPh)Gly = O=C(O)CNc1ccc(C(=O)c2ccccc2)cc1; Gly(N-piperonyl) = O=C(O)CNCc1ccc2c(c1)OCO2; Nleu = CC(C)CNCC(=O)O; Nlys = NCCCCNCC(=O)O; Nme = COCCNCC(=O)O; Sar = CNCC(=O)O

How the values were obtained:
vimentin [1] = biological target: T1, vimentin (Homo sapiens, UniProt P08670); assay: ELISA-like binding assay to vimentin
Procedure: To identify minimum pharmacophore of JM3A (the most important residues directly needed for protein binding), an alanine/sarcosine scan was done.
Next, Applicant compared binding activity between L2 (D-ala) and JM3ABPD1 by employing ELISA-like binding assay in a concentration between 10 nM to 10 μM.

H1299 cells [2] = format: cell-based
Procedure: Next, Applicant evaluated the anti-proliferative activity of these peptoid dimers via standard MTS assays on non-small cell lung cancer (NSCLC) H1299 cells, which have high vimentin expression.
After 18 hours, the activity reached the maximum (IC50˜6 μM) (FIG. 21C).

[3] = system: HBEC3^p53,KRAS,cMYC cells; assay: on-bead cell binding, transformed cells; format: cell-based, human; conditions: JM3A on tentagel beads, red stained cells, separately and as mixture
Text: (§1) The compound JM3A was resynthesized on tentagel beads and equilibrated with HBEC3^p53,KRAS,cMYC (red stained) cells and HBEC3-KT (green stained) cells separately and also as a mixture.

[4] = system: vimentin expressing cells; assay: magnetic bead pulldown of cells with quantification; format: cell-based, human; conditions: HBEC3^p53,KRAS,cMYC vs HBEC3-KT; NAD(P)H, dityrosine, MTS readout
Procedure: JM3A can be utilized as an early cancer biomarker to develop simple diagnostic tools such as reading the cells auto fluorescence markers or quantifying the cells using MTS assay. Applicant performed the pulldown assay using JM3A to HBEC3-KT and HBEC3^p53,KRAS,cMYC cells. The Biotin-JM3A compound was mounted on streptavidin coated magnetic beads and 1 million cells (HBEC3-KT and HBEC3^p53,KRAS,cMYC cells each) were incubated for 1 hour. Next, bound cells were pulled using magnet.
The difference of number of cells pulled down were quantified for NAD (P) H (FIG. 11A) and Dityrosine (FIG. 11B) expression. Also to the pulldown cells MTS reagent was added and number of cells were quantified (FIG. 11C).

vimentin [5] = biological target: T1, vimentin; assay: cross-linking, magnetic-bead pulldown and western blot on cells; format: binding; design: from tissue; host or cells: human early cancer tissue and normal tissue cross-sections; conditions: western blot
Procedure: For pulldown assay, the JM3A compound was synthesized with Biotin on C-terminal and benzophenone on its N-terminal (FIG. 7A). The compound was first mounted on streptavidin magnetic beads, followed by incubation of the cells HBEC3^p53,KRAS,cMYC and HBEC3-KT for 1 hour. Bound cells were separated using magnetic beads and cross-linked using UV. The cells were then lysed, and the proteins were separated by electrophoresis and visualized by silver staining (FIG. 7B). The unique band at around 60 kDa in the JM3A-bound sample, which was not present in whole cell lysis of HBEC3-KT cells or in the Control-PC462 compound pulldown, was analyzed by standard proteomics technique.
To reconfirm the JM3A-vimentin interaction, western blot analysis of samples from cross-linking and magnetic-bead pulldown assay with normal cells (HBEC3-KT) and transformed cells (HBEC3^p53,KRAS,cMYC) were performed (FIG. 10A). Pulldown assay was performed on normal and transformed cells using JM3A and control PC462. All the pulldown fractions were run on western-blot and compared with whole-cell lysis of HBEC3-KT and HBEC3^p53,KRAS,cMYC cells.

vimentin [6] = biological target: T1, vimentin; assay: immunohistochemical detection of vimentin in tissues; design: from tissue; host or cells: human early cancer tissue and normal tissue cross-sections; conditions: IHC
Procedure: In a more clinically applicable set up, Applicant detected vimentin expression using JM3A in early cancer tissues from human samples using immunohistochemistry (IHC) experiments. Biotin-JM3A was incubated with those tumor tissue cross-sections compared to normal tissues for 1 hour and visualized by streptavidin Q-dots 655 under fluorescent microscope using Long-pass filter (FIG. 11D).

[7] = biological target: Vimentin protein (His-tag) (Homo sapiens, UniProt P08670); assay: on bead protein binding assay; conditions: anti-His Alexa 647 detection
Procedure: To reconfirm the JM3A-vimentin interaction, an on bead protein binding assay was performed. Vimentin protein (His-tag) was screened with compound JM3A (on tentagel beads) and visualized using a secondary antibody (Anti-His Alexa 647) (FIG. 9A).

[8] = biological target: T2, commercially available vimentin protein (Homo sapiens, UniProt P08670); assay: magnetic-bead pulldown and western blot with commercially available vimentin protein; format: binding; conditions: western blot
T2 construct: purchased
Text: To further confirm of JM3A specificity, the western blot assay was repeated using commercially available vimentin protein (FIG. 10B). […] This JM3A bound band disappeared when this binding was competed (blocked) with 10× free JM3A, and 5× free vimentin antibody. […] The results were further confirmed by running pure protein as reference band and JM3A transformed cells pulldown proteins.

HBEC3-KT cells = assay: on-bead cell binding, normal cells; format: cell-based, human; conditions: JM3A on tentagel beads, green stained cells, separately and as mixture
Text: as §1

H2122 = assay: MTS assay on H2122 cells; format: cell-based; conditions: H2122, vimentin low expression
Text: (§2) In order to investigate the broader applicability of vimentin targeting in NSCLC cells, Applicant performed the same MTS studies on different lung cancer models with various vimentin expressions. These cell lines included H460 (Carcinoma, large cell lung cancer), H2009 (Adenocarcinoma, Stage 4), H358 (Bronchioalveolar Carcinoma, NSCLC), H2122 (Adenocarcinoma, NSCLC), and normal bronchial epithelial HBEC3KT cells.

H460 cells = assay: colony formation assay; format: cell-based; conditions: for colony formation: 7 days, at 20 μM
Procedure: FIGS. 23A-23B provide additional data related to the characterization of L2 (D-ala), JM3A-BPD1, and JM3A-BP. […] FIG. 23B provides a quantification of the colonies after a 7-day incubation treatment.
Colony formation is a standard assay to assess the activity of cancer stem cells. When cancer cells are seeded in a low number, normal cancer cells die due to the loss of cell-cell communications while cancer stem cells can survive and form colonies in isolation. Applicant performed colony formation assay on H460 cells to study how L2 (D-ala) can affect cancer stem cells activity. The H460 cells were seeded and treated with L2 (D-ala), JM3A-BPD1, JM3A-BP, and control compounds from day 1. After 7 days of incubation, colonies were carefully counted and plotted.

H2009 = assay: MTS assay on H2009 cells; format: cell-based; conditions: H2009, vimentin moderate expression
Text: as §2

H1299 cells [9] = assay: wound healing (cell migration) assay; format: cell-based; design: inhibition of cell migration: dose or concentration left out as unconfirmed
Procedure: FIGS. 22A-22B provide data related to the characterization of L2 (D-ala), JM3A-BPD1, and JM3A-BP. […] H1299 cells were cultured to form a monolayer in 24-well plate. A scratch was made and wells were treated with L2 (D-ala), JM3A-BPD1. […]
Since vimentin has been identified as an important biomarker of mesenchymal cells during the epithelial-mesenchymal transition (EMT) process. The EMT process can endow epithelial cells with stemness as well as invasion and migration properties. Therefore, Applicant would like to investigate how L2 (D-ala) targeting vimentin can impact cancer stem cells activity. The wound-healing assay indicates the mobility/motility of cells, which is a hallmark measurement of cancer stem cells. The L2 (D-ala), JM3A-BPD1, JM3A-BP, and control compound were used to study the effects on cell migration via wound healing assay. […] Both JM3A-BP monomer and control compounds had no effect on cell migration.

H460 = assay: MTS assay on H460 cells; format: cell-based; conditions: H460, vimentin high expression
Text: as §2

[10] = system: normal bronchial epithelial HBEC3KT cells; assay: MTS assay on normal bronchial epithelial cells; format: cell-based, human
Text: as §2

H358 = assay: MTS assay on H358 cells; format: cell-based; conditions: H358, vimentin moderate expression
Text: as §2

T1 sequence (P08670 whole entry): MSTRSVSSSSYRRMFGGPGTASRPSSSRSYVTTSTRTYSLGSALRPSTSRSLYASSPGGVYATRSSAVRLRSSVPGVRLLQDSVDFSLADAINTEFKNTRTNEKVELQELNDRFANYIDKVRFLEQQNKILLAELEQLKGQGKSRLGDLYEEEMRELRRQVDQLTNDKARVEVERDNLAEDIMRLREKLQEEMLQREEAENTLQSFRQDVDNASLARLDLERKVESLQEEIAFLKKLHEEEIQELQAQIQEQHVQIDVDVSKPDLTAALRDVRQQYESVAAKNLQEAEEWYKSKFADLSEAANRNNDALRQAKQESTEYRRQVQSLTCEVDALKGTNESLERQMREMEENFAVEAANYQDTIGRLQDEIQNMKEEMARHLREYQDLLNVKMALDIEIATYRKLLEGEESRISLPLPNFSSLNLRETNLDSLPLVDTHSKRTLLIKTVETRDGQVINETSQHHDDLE
T2 sequence (P08670 whole entry): as above
Chain of Vimentin protein (His-tag) (P08670 whole entry): as above

SMILES: COCCN(CC(=O)NC(CCCCN)C(=O)NC(CCSC)C(N)=O)C(=O)CN(C)C(=O)CN(CC(C)C)C(=O)CN(CCCCN)C(=O)CN(CCCCN)C(=O)CN(C)C(=O)CNc1ccc(C(=O)c2ccccc2)cc1 (stereo not shown) [JM3A-4,8-BP] (H-[N(4-BzPh)Gly][Sar][Nlys][Nlys][Nleu][Sar][Nme]KM-NH2; configuration not given here)
- binding to vimentin (in words) (vimentin [1]; comparison of derivatives): highest binding affinity

SMILES: COCCN(CC(=O)N[C@@H](CCCCN)C(=O)N[C@H](C)C(=O)NCC(=O)NCCCC[C@H](NC(=O)CNC(=O)[C@@H](C)NC(=O)[C@H](CCCCN)NC(=O)CN(CCOC)C(=O)CN(Cc1ccc2c(c1)OCO2)C(=O)CN(CC(C)C)C(=O)CN(CCCCN)C(=O)CN(CCCCN)C(=O)CN(CC(C)C)C(=O)CNc1cccc(C(=O)c2ccccc2)c1)C(N)=O)C(=O)CN(Cc1ccc2c(c1)OCO2)C(=O)CN(CC(C)C)C(=O)CN(CCCCN)C(=O)CN(CCCCN)C(=O)CN(CC(C)C)C(=O)CNc1ccc(C(=O)c2ccccc2)cc1 [L2 (D-ala)] (I: H-[X1][Nleu][Nlys][Nlys][Nleu][Gly(N-piperonyl)][Nme]K[dA]GK-NH2 / II: H-[N(4-BzPh)Gly][Nleu][Nlys][Nlys][Nleu][Gly(N-piperonyl)][Nme]K[dA]G; amide I:11-II:C; N-terminus and C-terminus assumed)
- anti-proliferation activity (in words) (H2122): lowest activity
- concentration from which colony formation is disrupted (H460 cells; 7 days of incubation): 1 µM
- colony formation (H460 cells): inhibit all colonies
- anti-proliferation activity (in words) (H2009): medium activity
- concentration from which cell migration is inhibited (H1299 cells [9]): 3 µM
- inhibition of cell migration (H1299 cells [9]): significantly inhibit
- anti-proliferation activity (in words) (H460): best activity
- anti-proliferation activity (in words) [10]: inactivity
- effect of extension of treatment time on proliferation (H1299 cells [2]; H1299 cells, after 18 hours): no significant impact
- anti-proliferation potency (in words) (H1299 cells [2]; H1299 cells, treatment 6 hours): improvement in potency
- anti-proliferation activity (in words) (H358): medium activity
- Kd improvement relative to JM3A-BPD1 (vimentin [1]; 10 nM to 10 μM): approximately 10 times

SMILES: COCCN(CC(=O)NC(CCCCN)C(=O)NC(CCSC)C(=O)NCCCCC(NC(=O)C(CCSC)NC(=O)C(CCCCN)NC(=O)CN(CCOC)C(=O)CN(Cc1ccc2c(c1)OCO2)C(=O)CN(CC(C)C)C(=O)CN(CCCCN)C(=O)CN(CCCCN)C(=O)CN(CC(C)C)C(=O)CNc1ccc(C(=O)c2ccccc2)cc1)C(N)=O)C(=O)CN(Cc1ccc2c(c1)OCO2)C(=O)CN(CC(C)C)C(=O)CN(CCCCN)C(=O)CN(CCCCN)C(=O)CN(CC(C)C)C(=O)CNc1ccc(C(=O)c2ccccc2)cc1 (stereo not shown) [JM3A-BPD1] (I: H-[N(4-BzPh)Gly][Nleu][Nlys][Nlys][Nleu][Gly(N-piperonyl)][Nme]KMK-NH2 / II: H-[N(4-BzPh)Gly][Nleu][Nlys][Nlys][Nleu][Gly(N-piperonyl)][Nme]KM; amide I:10-II:C; configuration not given here)
- colony formation (H460 cells): some colony disruption
- inhibition of cell migration (H1299 cells [9]): moderately inhibit

Continued, in another order:

- IC50 (H1299 cells [2]): ~6 µM
SMILES: COCCN(CC(=O)N[C@@H](CCCCN)C(=O)N[C@@H](CCSC)C(=O)NCC(=O)NCCCC[C@H](NC(=O)CNC(=O)[C@H](CCSC)NC(=O)[C@H](CCCCN)NC(=O)CN(CCOC)C(=O)CN(Cc1ccc2c(c1)OCO2)C(=O)CN(CC(C)C)C(=O)CN(CCCCN)C(=O)CN(CCCCN)C(=O)CN(CC(C)C)C(=O)CNc1ccc(C(=O)c2ccccc2)cc1)C(N)=O)C(=O)CN(Cc1ccc2c(c1)OCO2)C(=O)CN(CC(C)C)C(=O)CN(CCCCN)C(=O)CN(CCCCN)C(=O)CN(CC(C)C)C(=O)CNc1ccc(C(=O)c2ccccc2)cc1 [L2] (I: H-[N(4-BzPh)Gly][Nleu][Nlys][Nlys][Nleu][Gly(N-piperonyl)][Nme]KMGK-NH2 / II: H-[N(4-BzPh)Gly][Nleu][Nlys][Nlys][Nleu][Gly(N-piperonyl)][Nme]KMG; amide I:11-II:C)

- pulldown of vimentin protein (vimentin [5]; normal cells (HBEC3-KT)): not in normal cells
- detection of vimentin overexpression (vimentin [6]; early cancer tissues): present
- detection of vimentin overexpression (vimentin [6]; normal tissues): absent
- binding of histidine-tagged vimentin to on-bead compound [7]: showed binding
SMILES: COCCN(CC(=O)NC(CCCCN)C(=O)NC(CCSC)C(N)=O)C(=O)CN(Cc1ccc2c(c1)OCO2)C(=O)CN(CC(C)C)C(=O)CN(CCCCN)C(=O)CN(CCCCN)C(=O)CNCC(C)C (stereo not shown) [JM3A] (H-[Nleu][Nlys][Nlys][Nleu][Gly(N-piperonyl)][Nme]KM-NH2; configuration not given here)
- binding of beads to cells [3]: bound only to red stained cells
- pulldown of vimentin expressing cells [4]: can be pulled down
- pulldown of vimentin protein (vimentin [5]; transformed cells (HBEC3^p53,KRAS,cMYC)): pulldown only with JM3A in transformed cells
- interaction with and pulldown of vimentin protein [8]: strong interaction and pulldown of vimentin protein
- binding of beads to cells (HBEC3-KT cells): not to green stained cells
